Structures can show the parent of a compound that is named as a salt.
Key:
[1] = test system: Pfeiffer cell line (diffuse large B cell lymphoma); experiment: Pfeiffer cell proliferation assay; format: cell-based; details: Homo sapiens, [3H]-thymidine incorporation after 3-4 days plus 12 hours
Description: Pfeiffer Cell Proliferation Assay
Pfeiffer cell line (diffuse large B cell lymphoma) was purchased from ATCC (Manassas, Va.) and maintained in the culture medium recommended (RPMI and 10% FBS). To measure the anti-proliferation activity of the compounds, the Pfeiffer cells were plated with the culture medium (2×10^3 cells/well/per 200 μl) into 96-well ultra-low binding plates (Corning, Corning, N.Y.), in the presence or absence of a concentration range of test compounds. After 3-4 days, [^3H]-thymidine (1 μCi/well) (PerkinElmer, Boston, Mass.) in PBS was then added to the cell culture for an additional 12 hours before the incorporated radioactivity was separated by filtration with water through GF/B filters (Packard Bioscience, Meridenj, Conn.) and measured by liquid scintillation counting with a TopCount (Packard Bioscience).

[2] = target: T1, PI3Kδ (p110δ/p85α) (Homo sapiens, UniProt O00329); experiment: PI3Kδ scintillation proximity assay (assay A); format: biochemical; details: 20 μM PIP2, 20 μM ATP, 4 nM PI3Kδ, 210 minutes, room temperature
T1 construct: purchased Millipore (Bedford, Mass.)
Description: PI3Kδ Scintillation Proximity Assay
[γ-33P] ATP (10 mCi/mL) was purchased from Perkin-Elmer (Waltham, Mass.). […] PI3Kδ (p110δ/p85α) was purchased from Millipore (Bedford, Mass.). ATP, MgCl2, DTT, EDTA, MOPS and CHAPS were purchased from Sigma-Aldrich (St. Louis, Mo.). Wheat Germ Agglutinin (WGA) YSi SPA Scintillation Beads was purchased from GE healthcare life sciences (Piscataway, N.J.).
The kinase reaction was conducted in polystyrene 384-well matrix white plate from Thermo Fisher Scientific in a final volume of 25 μL. Inhibitors were first diluted serially in DMSO and added to the plate wells before the addition of other reaction components. The final concentration of DMSO in the assay was 0.5%. The PI3K assays were carried out at room temperature in 20 mM MOPS, pH 6.7, 10 mM MgCl2, 5 mM DTT and CHAPS 0.03%. Reactions were initiated by the addition of ATP, the final reaction mixture consisted of 20 μM PIP2, 20 μM ATP, 0.2 μCi [γ-^33P] ATP, 4 nM PI3Kδ. Reactions were incubated for 210 minutes and terminated by the addition of 40 μL SPA beads suspended in quench buffer: 150 mM potassium phosphate pH 8.0, 20% glycerol. 25 mM EDTA, 400 μM ATP. The final concentration of SPA beads is 1.0 mg/mL. After the plate sealing, plates were shaken overnight at room temperature and centrifuged at 1800 rpm for 10 minutes, the radioactivity of the product was determined by scintillation counting on Topcount (Perkin-Elmer). IC50 determination was performed by fitting the curve of percent control activity versus the log of the inhibitor concentration using the GraphPad Prism 3.0 software.

T1 sequence (O00329 whole entry): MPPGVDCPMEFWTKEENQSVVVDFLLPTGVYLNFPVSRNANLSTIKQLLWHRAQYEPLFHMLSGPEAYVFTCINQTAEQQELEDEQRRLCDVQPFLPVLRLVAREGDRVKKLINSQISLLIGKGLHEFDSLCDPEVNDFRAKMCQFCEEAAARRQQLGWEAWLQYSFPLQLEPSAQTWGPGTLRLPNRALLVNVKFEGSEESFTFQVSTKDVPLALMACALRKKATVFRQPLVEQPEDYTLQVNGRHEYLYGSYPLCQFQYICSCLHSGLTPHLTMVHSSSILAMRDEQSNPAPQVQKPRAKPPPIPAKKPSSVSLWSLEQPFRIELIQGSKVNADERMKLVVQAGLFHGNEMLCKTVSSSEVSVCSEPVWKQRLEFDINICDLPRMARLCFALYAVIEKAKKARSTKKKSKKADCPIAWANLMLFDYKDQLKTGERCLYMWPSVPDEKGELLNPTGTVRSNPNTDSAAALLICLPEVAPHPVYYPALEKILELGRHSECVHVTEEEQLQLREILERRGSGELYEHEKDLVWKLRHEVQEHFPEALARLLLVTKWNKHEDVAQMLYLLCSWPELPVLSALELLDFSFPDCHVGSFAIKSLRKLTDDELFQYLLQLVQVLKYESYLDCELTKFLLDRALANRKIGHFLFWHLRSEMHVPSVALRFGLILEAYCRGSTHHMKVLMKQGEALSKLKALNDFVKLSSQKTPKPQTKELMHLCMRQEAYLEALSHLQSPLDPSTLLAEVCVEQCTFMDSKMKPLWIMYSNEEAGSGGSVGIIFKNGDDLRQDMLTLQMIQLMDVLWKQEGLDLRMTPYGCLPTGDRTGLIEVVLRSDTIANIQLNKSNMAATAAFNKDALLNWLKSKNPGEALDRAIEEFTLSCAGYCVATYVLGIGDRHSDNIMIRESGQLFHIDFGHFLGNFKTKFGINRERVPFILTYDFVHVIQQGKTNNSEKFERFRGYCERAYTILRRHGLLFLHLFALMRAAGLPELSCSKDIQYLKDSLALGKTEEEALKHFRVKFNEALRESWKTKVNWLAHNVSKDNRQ
T1 sequence (P27986 whole entry partner): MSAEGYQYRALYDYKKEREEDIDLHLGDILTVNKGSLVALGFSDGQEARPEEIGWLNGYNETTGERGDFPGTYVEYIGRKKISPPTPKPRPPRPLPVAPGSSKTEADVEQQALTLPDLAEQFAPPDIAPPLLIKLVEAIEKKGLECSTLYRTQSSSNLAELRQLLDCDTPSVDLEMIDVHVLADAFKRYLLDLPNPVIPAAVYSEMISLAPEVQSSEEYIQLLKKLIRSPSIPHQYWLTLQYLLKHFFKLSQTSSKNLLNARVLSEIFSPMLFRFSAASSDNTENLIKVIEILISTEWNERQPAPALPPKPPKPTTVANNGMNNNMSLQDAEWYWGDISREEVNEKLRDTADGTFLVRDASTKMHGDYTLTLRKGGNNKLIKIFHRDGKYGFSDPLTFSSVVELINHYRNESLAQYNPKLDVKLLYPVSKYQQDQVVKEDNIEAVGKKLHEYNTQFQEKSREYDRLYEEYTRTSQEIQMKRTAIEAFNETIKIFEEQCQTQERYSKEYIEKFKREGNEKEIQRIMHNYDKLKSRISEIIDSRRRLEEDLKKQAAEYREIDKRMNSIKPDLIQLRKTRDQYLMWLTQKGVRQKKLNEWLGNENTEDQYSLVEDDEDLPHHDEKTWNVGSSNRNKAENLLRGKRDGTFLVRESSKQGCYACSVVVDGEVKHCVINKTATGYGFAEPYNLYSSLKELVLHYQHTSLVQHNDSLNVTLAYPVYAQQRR

SMILES | IC50 [1] | IC50 [2]
CC(Nc1ncnc2[nH]cnc12)c1cc(Cl)c2cncn2c1-c1cccc(F)c1 (racemic) [Example 1, N-{1-[8-Chloro-5-(3-fluorophenyl)imidazo[1,5-a]pyridin-6-yl]ethyl}-9H-purin-6-amine] | ≤ 100 nM | < 50 nM
Cc1ncc2c(Cl)cc(C(C)Nc3ncnc4[nH]cnc34)c(-c3cccc(F)c3)n12 (racemic) [Example 2, N-{1-[8-Chloro-5-(3-fluorophenyl)-3-methylimidazo[1,5-a]pyridin-6-yl]ethyl}-9H-purin-6-amine] |  | < 50 nM
CC(Nc1ncnc2[nH]cnc12)c1cc(Cl)c2cncn2c1-c1cccc(F)c1 (single isomer, unassigned) [1, isomer 1] | ≤ 100 nM | < 50 nM
CC(Nc1ncnc2[nH]cnc12)c1cc(Cl)c2cncn2c1-c1cccc(F)c1 (single isomer, unassigned) [1, isomer 2] |  | 50 to 200 nM
CC(Nc1ncnc2[nH]cnc12)c1cc(Cl)c2nccn2c1-c1cccc(F)c1 (stereo not drawn) [Example 3, N-{1-[8-Chloro-5-(3-fluorophenyl)imidazo[1,2-a]pyridin-6-yl]ethyl}-9H-purin-6-amine] | 1000 to 3000 nM | 200 to 750 nM
CC(=O)N1CCN(c2c(C(C)Nc3ncnc4[nH]cnc34)cc(Cl)c3cncn23)CC1 (stereo not drawn) [Example 4, N-{1-[5-(4-Acetylpiperazin-1-yl)-8-chloroimidazo[1,5-a]pyridin-6-yl]ethyl}-9H-purin-6-amine] | 500 to 1000 nM | < 50 nM
CC(Nc1ncnc2[nH]cnc12)c1cc(Cl)c2cncn2c1N1CCN(S(C)(=O)=O)CC1 (stereo not drawn) [Example 5, N-(1-{8-chloro-5-[4-(methylsulfonyl)piperazin-1-yl]imidazo[1,5-a]pyridin-6-yl}ethyl)-9H-purin-6-amine] | > 3000 nM | 50 to 200 nM
CC(Nc1ncnc2[nH]cnc12)c1cc(Cl)c2cncn2c1N1CCN(C(=O)OC(C)(C)C)CC1 (stereo not drawn) [Example 6, tert-Butyl 4-{8-chloro-6-[1-(9H-purin-6-ylamino)ethyl]imidazo[1,5-a]pyridin-5-yl}piperazine-1-carboxylate] | > 3000 nM | 50 to 200 nM
CC(Nc1ncnc2[nH]cnc12)c1cc(Cl)c2cncn2c1N1CCN(C(=O)C2CC2)CC1 (stereo not drawn) [Example 7, N-(1-{8-Chloro-5-[4-(cyclopropylcarbonyl)piperazin-1-yl]imidazo[1,5-a]pyridin-6-yl}ethyl)-9H-purin-6-amine] | 100 to 500 nM | < 50 nM
COCC(=O)N1CCN(c2c(C(C)Nc3ncnc4[nH]cnc34)cc(Cl)c3cncn23)CC1 (stereo not drawn) [Example 8, N-(1-{8-chloro-5-[4-(methoxyacetyl)piperazin-1-yl]imidazo[1,5-a]pyridin-6-yl}ethyl)-9H-purin-6-amine] | > 3000 nM | < 50 nM
CC(Nc1ncnc2[nH]cnc12)c1cc(Cl)c2cncn2c1N1CCNCC1 (stereo not drawn) [Example 9, N-[1-(8-Chloro-5-piperazin-1-ylimidazo[1,5-a]pyridin-6-yl)ethyl]-9H-purin-6-amine dihydrochloride] | ≤ 100 nM | < 50 nM
CC(Nc1ncnc2[nH]cnc12)c1cc(Cl)c2cncn2c1N1CCN(C(=O)CC#N)CC1 (stereo not drawn) [Example 10, 3-(4-{8-Chloro-6-[1-(9H-purin-6-ylamino)ethyl]imidazo[1,5-a]pyridin-5-yl}piperazin-1-yl)-3-oxopropanenitrile] | > 3000 nM | < 50 nM
CC(Nc1ncnc2[nH]cnc12)c1cc(Cl)c2cncn2c1N1CCN(C(=O)c2cnn(C)c2)CC1 (stereo not drawn) [Example 11, N-[1-(8-Chloro-5-{4-[(1-methyl-1H-pyrazol-4-yl)carbonyl]piperazin-1-yl}imidazo[1,5-a]pyridin-6-yl)ethyl]-9H-purin-6-amine] | > 3000 nM | < 50 nM
COCCN1CCN(c2c(C(C)Nc3ncnc4[nH]cnc34)cc(Cl)c3cncn23)CC1 (stereo not drawn) [Example 12, N-(1-{8-Chloro-5-[4-(2-methoxyethyl)piperazin-1-yl]imidazo[1,5-a]pyridin-6-yl}ethyl)-9H-purin-6-amine] | 100 to 500 nM | 200 to 750 nM
CC(Nc1ncnc2[nH]cnc12)c1cc(Cl)c2cncn2c1N1CCN(CC#N)CC1 (stereo not drawn) [Example 13, (4-{8-Chloro-6-[1-(9H-purin-6-ylamino)ethyl]imidazo[1,5-a]pyridin-5-yl}piperazin-1-yl)acetonitrile] | 500 to 1000 nM | 50 to 200 nM
CC(Nc1ncnc2[nH]cnc12)c1cc(Cl)c2cncn2c1N1CCN(CCCC(F)(F)F)CC1 (stereo not drawn) [Example 14, N-(1-{8-Chloro-5-[4-(4,4,4-trifluorobutyl)piperazin-1-yl]imidazo[1,5-a]pyridin-6-yl}ethyl)-9H-purin-6-amine] | ≤ 100 nM | 50 to 200 nM
CC(Nc1ncnc2[nH]cnc12)c1cc(Cl)c2cncn2c1N1CCN(C2CCC2)CC1 (stereo not drawn) [Example 15, N-{1-[8-Chloro-5-(4-cyclobutylpiperazin-1-yl)imidazo[1,5-a]pyridin-6-yl]ethyl}-9H-purin-6-amine] | ≤ 100 nM | 50 to 200 nM
CC(Nc1ncnc2[nH]cnc12)c1cc(Cl)c2cncn2c1N1CCN(CC2CCCO2)CC1 (stereo not drawn) [Example 16, N-(1-{8-Chloro-5-[4-(tetrahydrofuran-2-ylmethyl)piperazin-1-yl]imidazo[1,5-a]pyridin-6-yl}ethyl)-9H-purin-6-amine] | 100 to 500 nM | 200 to 750 nM
CC(Nc1ncnc2[nH]cnc12)c1cc(Cl)c2cncn2c1N1CCN(CC2CC2)CC1 (stereo not drawn) [Example 17, N-(1-{8-Chloro-5-[4-(cyclopropylmethyl)piperazin-1-yl]imidazo[1,5-a]pyridin-6-yl}ethyl)-9H-purin-6-amine] | 100 to 500 nM | 200 to 750 nM
CCC(Nc1ncnc2[nH]cnc12)c1cc(Cl)c2cncn2c1-c1cccc(F)c1 (stereo not drawn) [Example 18, N-{1-[8-Chloro-5-(3-fluorophenyl)imidazo[1,5-a]pyridin-6-yl]propyl}-9H-purin-6-amine] | 100 to 500 nM | < 50 nM
Cc1ncc2c(Cl)cc(C(C)Nc3ncnc4[nH]cnc34)c(-c3cc(F)cc(F)c3)n12 (stereo not drawn) [Example 19, N-{1-[8-Chloro-5-(3,5-difluorophenyl)-3-methylimidazo[1,5-a]pyridin-6-yl]ethyl}-9H-purin-6-amine] | ≤ 100 nM | < 50 nM
CCC(Nc1ncnc2[nH]cnc12)c1cc(Cl)c2cnc(C)n2c1-c1cc(F)cc(F)c1 (stereo not drawn) [Example 20, N-{1-[8-Chloro-5-(3,5-difluorophenyl)-3-methylimidazo[1,5-a]pyridin-6-yl]propyl}-9H-purin-6-amine] | 100 to 500 nM | < 50 nM
CO[C@@H]1CCN(c2c(C(C)Nc3ncnc4[nH]cnc34)cc(Cl)c3cncn23)C1 (stereo partly drawn) [Example 21, N-(1-{8-Chloro-5-[(3R)-3-methoxypyrrolidin-1-yl]imidazo[1,5-a]pyridin-6-yl}ethyl)-9H-purin-6-amine] | ≤ 100 nM | < 50 nM
CO[C@H]1CCN(c2c(C(C)Nc3ncnc4[nH]cnc34)cc(Cl)c3cncn23)C1 (stereo partly drawn) [Example 22, N-(1-{8-Chloro-5-[(3S)-3-methoxypyrrolidin-1-yl]imidazo[1,5-a]pyridin-6-yl}ethyl)-9H-purin-6-amine] | ≤ 100 nM | < 50 nM
CC(Nc1ncnc2[nH]cnc12)c1cc(Cl)c2cncn2c1N1CC[C@@H](O)C1 (stereo partly drawn) [Example 23, (3R)-1-{8-Chloro-6-[1-(9H-purin-6-ylamino)ethyl]imidazo[1,5-a]pyridin-5-yl}pyrrolidin-3-ol] | ≤ 100 nM | 50 to 200 nM
